Reference: patent publication US6603031B1, “Vitamin D derivatives with cyclic substructures in the side chains, process and intermediate products for their production, and the use for the production of pharmaceutical agents” (Schering Aktiengesellschaft, priority 1999, dated 2003)
Where two headings read alike, the source gives them in different places.

Columns and labels:
HL 60 cells = test: differentiation induction of HL 60 cells to macrophages (NBT reduction); type: cell-based, human; conditions: 96 hours incubation, reference calcitriol
Protocol: The differentiation-stimulating action of calcitriol analogues is also detected quantitatively.
It is known in the literature [D. J. Mangelsdorf et al., J. Cell. Biol. 98: 391 (1984)] that the treatment of human leukemia cells (promyelocyte cell line HL 60) in vitro with calcitriol induces the differentiation of cells to macrophages.
HL 60 cells are cultivated in tissue culture medium (RPMI 10% fetal calf serum) at 37° C. in an atmosphere of 5% CO2 in air.
For substance testing, the cells are centrifuged off, and 2.0×10^5 cells/ml in phenol red-free tissue culture medium is taken up. The test substances are dissolved in ethanol and diluted with tissue culture medium without phenol red to the desired concentration. The dilution stages are mixed with the cell suspension at a ratio of 1:10, and 100 μl each of this cell suspension that is mixed with substance is pipetted into an indentation of a 96-hole plate. For control, a cell suspension is mixed analogously with the solvent.
After incubation for 96 hours at 37° C. in 5% CO2 in air, 100 μl of an NBT-TPA solution (nitro blue tetrazolium (NBT), final concentration in the batch of 1 mg/ml, tetradecanoyl phorbolmyristate-13-acetate (TPA), final concentration in the batch of 2×10^−7 mol/l) is pipetted into each indentation of the 96-hole plate in the cell suspension.
By incubation for 2 hours at 37° C. and 5% CO2 in air, NBT is reduced to insoluble formazan because of the intracellular oxygen radical release, stimulated by TPA, in the cells that are differentiated to macrophages.
To complete the reaction, the indentations of the 96-hole plate are suctioned off, and the cells are affixed to the bottom of the plate by adding methanol and dried after affixing. To dissolve the intracellular formazan crystals that are formed, 100 μl of potassium hydroxide (2 mol/l) and 100 μl of dimethyl sulfoxide are pipetted into each indentation and ultrasonically treated for 1 minute. The concentration of formazan is measured by spectrophotometry at 650 nm.
As a yardstick for the differentiation induction of HL 60 cells to macrophages, the concentration of formed formazan applies.

[1] = rat, in vivo, sc
Protocol: (§1) To determine the acute hypercalcemic action of various calcitriol derivatives, the test that is described below is carried out:
(§2) During the testing time, the rats are kept in special cages to determine the excretion-of water-and mineral substances. Urine is collected in 2 fractions (0-16 hours and 16-22 hours). An oral dose of calcium (0.1 mmol of calcium in 6.5% alpha-hydroxypropyl-cellulose, 5 ml/animal) replaces at 1600 hours the calcium intake that is lacking by food deprivation. At the end of the test, the animals are killed by decapitation and exsanguinated to determine the serum-calcium values. For the primary screen test in vivo, an individual standard dose (200 μg/kg) is tested. For selected substances, the result is supported by establishing a dose-effect relation.
(§3) The significance of differences occurring between substance groups and controls and between test substance and reference substance are supported with suitable statistical processes.

vitamin D receptor = molecular target: T1, vitamin D receptor (Sus scrofa, UniProt A3RGC1); test: calcitriol-receptor test (competition with 3H-calcitriol); conditions: protein extract from intestines of juvenile pigs
T1 sequence (A3RGC1 1-427): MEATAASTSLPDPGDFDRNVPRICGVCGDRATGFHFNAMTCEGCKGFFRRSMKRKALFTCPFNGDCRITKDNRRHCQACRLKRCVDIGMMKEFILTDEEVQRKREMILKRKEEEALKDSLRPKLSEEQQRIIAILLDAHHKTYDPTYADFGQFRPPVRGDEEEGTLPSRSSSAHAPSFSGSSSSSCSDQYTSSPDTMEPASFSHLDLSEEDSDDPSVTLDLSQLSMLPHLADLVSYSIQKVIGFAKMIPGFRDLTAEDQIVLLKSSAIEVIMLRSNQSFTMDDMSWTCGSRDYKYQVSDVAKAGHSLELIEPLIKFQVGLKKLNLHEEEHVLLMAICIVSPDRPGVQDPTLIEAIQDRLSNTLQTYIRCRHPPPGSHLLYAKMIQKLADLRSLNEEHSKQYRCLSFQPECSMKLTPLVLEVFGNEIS
Protocol: The vitamin D activity of the substances according to the invention is determined with the aid of the calcitriol-receptor test. It is carried out using a protein extract from the intestines of juvenile pigs. […] To this end, 250 μl of a charcoal-dextran suspension is fed to each test tube and incubated at 4° C. for 20 minutes. Then, the samples are centrifuged at 10,000 g for 5 minutes at 40° C. The supernatant is decanted and measured in a β-counter after 1 hour of equilibration in Picofluor 15™.
The competition curves that are obtained at various concentrations of test substance as well as of reference substance (unlabeled calcitriol) at constant concentration of the reference substance (^3H-calcitriol) are placed in relation to one another, and a competition factor (KF) is determined.
It is defined as a quotient of the concentrations of the respective test substance and the reference substance, which are necessary for 50% competition:
KF=Concentration of test substance at 50% competition/Concentration of reference substance at 50% competition

[2] = acute hypercalcemic action after one-time subcutaneous administration (serum calcium); conditions: male rats, reference calcitriol
Protocol: as §1, §2, §3

| SMILES | DR (HL 60) (dose ratio test substance/reference substance for comparable semi-maximum actions) (HL 60 cells) | DR (Ca) (dose ratio for hypercalcemia, test substance dose/reference substance dose for comparable actions) [1] | KF (competition factor: concentration of test substance / reference substance at 50% competition) (vitamin D receptor) | DR (Ca) (dose ratio for hypercalcemia, test substance dose/reference substance dose for comparable actions) [2] |
| --- | --- | --- | --- | --- |
| C=C1C(=CC=C2CCCC3(C)C2CCC3C(C)CCC(O)c2nccs2)CC(O)CC1O [217a, (5Z,7E)-(1S,3R,24S)-24-(Thiazol-2-yl)-9,10-secochola-5,7,10(19)-triene-1,3,24-triol] | 100 | >300 | 7 |  |
| CC(CCCC(O)c1cocn1)C1CCC2C(=CC=C3CC(O)CC(O)C3)CCCC21C [16a, (7E)-(1R,3R,24aR)-24a-(Oxazol-4-yl)-24a-homo-19-nor-9,10-secochola-5,7-diene-1,3,24a-triol] | 5 | >30 | 5 |  |
| C[C@H](CCCC(=O)c1cccs1)[C@H]1CC[C@H]2/C(=C/C=C3C[C@@H](O)C[C@H](O)C3)CCC[C@]12C [compound 57, (7E)-(1R,3R)-1,3-Dihydroxy-24a-(thien-2-yl)-24a-homo-19-nor-9,10-secochola-5,7-dien-24a-one] | 2 | >350 | 12 |  |
| C=C1C(=CC=C2CCCC3(C)C2CCC3C(C)CCCC(O)c2cocn2)CC(O)CC1O [20a, (5Z,7E)-(1S,3R,24aR)-24a-(Oxazol-4-yl)-24a-homo-9,10-secochola-5,7,10(19)-triene-1,3,24a-triol] | 2 |  | 3 | >50 |
| C[C@H](CCC[C@H](O)c1cccs1)[C@H]1CC[C@H]2/C(=C/C=C3C[C@@H](O)C[C@H](O)C3)CCC[C@]12C [55b, (7E)-(1R,3R,24aS)-24a-(thien-2-yl)-24a-homo-19-nor-9,10-secochola-5,7-diene-1,3,24a-triol] | 8 | >100 | 5 |  |
| C=C1/C(=C\C=C2/CCC[C@]3(C)[C@@H]([C@H](C)CCCC(C)(C)O)CC[C@@H]23)C[C@@H](O)C[C@@H]1O [Calcitriol, 1,25-dihydroxy vitamin D3, reference compound] | 1 |  |  | 1 |
